Assay results reported in ChEMBL document CHEMBL1137482, “Carbonic anhydrase inhibitors: cloning, characterization, and inhibition studies of the cytosolic isozyme III with sulfonamides” (Bioorg Med Chem, 2007).

molecular target: Carbonic anhydrase 3 (Homo sapiens, UniProt P07451)
Sequence (P07451 whole entry): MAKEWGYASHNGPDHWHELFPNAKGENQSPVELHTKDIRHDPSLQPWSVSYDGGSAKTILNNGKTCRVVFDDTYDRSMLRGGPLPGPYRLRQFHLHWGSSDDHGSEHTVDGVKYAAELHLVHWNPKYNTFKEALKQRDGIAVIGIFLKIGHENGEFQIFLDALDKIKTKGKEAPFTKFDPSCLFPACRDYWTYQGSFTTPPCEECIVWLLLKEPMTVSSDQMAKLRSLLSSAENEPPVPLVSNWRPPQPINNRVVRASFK

`Nc1nnc(S(N)(=O)=O)s1` and `Cn1nc(S(N)(=O)=O)sc1=N` are within 1.5-fold of each other in Ki: 148 µM for the first, 198 µM for the second.

`Nc1ccc(S(=O)(=O)NCc2ccc(S(N)(=O)=O)cc2)cc1` and `Nc1ccc(S(=O)(=O)NCCc2ccc(S(N)(=O)=O)cc2)cc1` are within 1.5-fold of each other in Ki: 114 µM for the first, 140 µM for the second.

Compared with `Nc1ccc(S(=O)(=O)Nc2nnc(S(N)(=O)=O)s2)cc1`, `Nc1ccc(S(N)(=O)=O)cc1` [SULFANILAMIDE] is 55-fold higher in Ki: 18.1 µM for the first, 988 µM for the second.

First: Nc1nccc(Nc2ccc(S(N)(=O)=O)cc2)n1
Second: NCc1ccc(S(N)(=O)=O)cc1 [MAFENIDE]
The Ki of the first is 3.9-fold higher: 2630 µM for the first, 681 µM for the second. The second binds more tightly here.

First: Nc1ccccc1S(N)(=O)=O
Second: Nc1ccc(S(N)(=O)=O)cc1F
The Ki of the first is 2.3-fold lower: 887 µM for the first, 2070 µM for the second.

Compared with `NS(=O)(=O)c1ccc(CCO)cc1`, `NS(=O)(=O)c1ccc(CO)cc1` is 4.1-fold higher in Ki: 1190 µM for the first, 4890 µM for the second.

Compared with `Nc1ccc(S(N)(=O)=O)cc1Cl`, `Cc1ccc(S(N)(=O)=O)cc1` [P-TOLUENESULFONAMIDE] is 90-fold lower in Ki: 710 µM for the first, 7.9 µM for the second.

Compared with `NS(=O)(=O)c1ccc(S(=O)(=O)Nc2cccc3c(Cl)c[nH]c23)cc1`, `Cc1ccc(-c2cc(C(F)(F)F)nn2-c2ccc(S(N)(=O)=O)cc2)cc1` [CELECOXIB] is 15-fold higher in Ki: 10.4 µM for the first, 154 µM for the second.

Compared with `CCNC1CN(CCCOC)S(=O)(=O)c2sc(S(N)(=O)=O)cc21` (single isomer, unassigned) [BRINZOLAMIDE], `CCN1CCCC1CNC(=O)c1cc(S(N)(=O)=O)ccc1OC` (configuration not stated) [SULPIRIDE] is 10-fold lower in Ki: 110 µM for the first, 10.6 µM for the second.

Going from `NS(=O)(=O)c1ccc(C(=O)O)cc1` [CARZENIDE] to `NS(=O)(=O)c1cc(Cl)c(Cl)c(S(N)(=O)=O)c1` [DICHLORPHENAMIDE], the Ki rises from 11.3 µM to 684 µM (61-fold). The first binds more tightly here.

`O=C1NS(=O)(=O)c2ccccc21` [SACCHARIN] and `CC1(C)O[C@@H]2[C@@H](CO[C@@]3(COS(N)(=O)=O)OC(C)(C)O[C@@H]23)O1` [TOPIRAMATE] are within 1.5-fold of each other in Ki: 1000 µM for the first, 780 µM for the second.
